According to ChEMBL document CHEMBL1201862, “PubChem BioAssay data set” (2004):
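Interpolation was linear, between the two tested concentrations surrounding the appropriate level; five concentrations were tested over 48 hours in 96-well plates. GI50 marks 50% less growth.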 Calls of active or inactive are those of the source. Cut-off read from the data, not from the text of the source: active = GI50 up to about 1.1 µM and inactive = higher.

How the values were obtained:
Assay in all cases: NCI anticancer screen, dose series, 48 h
DMS-273 = test system: DMS-273
KM-20L2 = test system: KM-20L2
HOP-18 = test system: HOP-18
M19-MEL = test system: M19-MEL
DLD-1 = test system: DLD-1
XF498 = test system: XF498
DMS-114 = test system: DMS-114
LXFL 529 = test system: LXFL 529
RXF 631 = test system: RXF 631

S=P(N1CCCC1)(N1CC1)N1CC1
GI50 (DMS-273): > 100 µM (inactive) | GI50 (KM-20L2): > 100 µM (inactive) | GI50 (HOP-18): > 100 µM (inactive) | GI50 (M19-MEL): > 100 µM (inactive) | GI50 (DLD-1): > 100 µM (inactive) | GI50 (XF498): > 100 µM (inactive) | GI50 (DMS-114): 99.5 µM (inactive)

CN(C)CC1CC/C(=C\c2ccc(O)cc2)C1=O (stereo not given)
GI50 (DMS-273): 3.3 µM (inactive) | GI50 (KM-20L2): 9.55 µM (inactive) | GI50 (HOP-18): 6.35 µM (inactive) | GI50 (M19-MEL): 2.78 µM (inactive) | GI50 (LXFL 529): 1.85 µM (inactive) | GI50 (DLD-1): 2.58 µM (inactive) | GI50 (XF498): 5.82 µM (inactive) | GI50 (DMS-114): 10 µM (inactive)

CC(C)(C)/N=C1/CC(C)(C)c2ccccc2/C(=N\c2ccccc2)S1
GI50 (DMS-273): 32.1 µM (inactive) | GI50 (KM-20L2): 31.8 µM (inactive) | GI50 (M19-MEL): 36 µM (inactive) | GI50 (LXFL 529): 29.9 µM (inactive) | GI50 (DLD-1): 26.3 µM (inactive) | GI50 (XF498): 21.1 µM (inactive) | GI50 (DMS-114): 26.7 µM (inactive)

Cc1ccccc1C(=O)c1ccccc1O
GI50 (DMS-273): > 100 µM (inactive) | GI50 (KM-20L2): > 100 µM (inactive) | GI50 (HOP-18): > 100 µM (inactive) | GI50 (M19-MEL): > 100 µM (inactive) | GI50 (LXFL 529): > 100 µM (inactive) | GI50 (DLD-1): > 100 µM (inactive) | GI50 (XF498): > 100 µM (inactive) | GI50 (RXF 631): > 100 µM (inactive) | GI50 (DMS-114): > 100 µM (inactive)

Cc1ccc(C2=C(c3ccccc3)C(Br)(c3ccccc3)C(c3ccccc3)=C2c2ccc(C)cc2)cc1
GI50 (KM-20L2): > 100 µM (inactive) | GI50 (HOP-18): > 100 µM (inactive) | GI50 (M19-MEL): > 100 µM (inactive) | GI50 (LXFL 529): > 100 µM (inactive) | GI50 (DLD-1): > 100 µM (inactive) | GI50 (XF498): > 100 µM (inactive) | GI50 (DMS-114): > 100 µM (inactive)

O=C1C=C(Br)C(=O)C12CCc1ccccc12 (stereo not given)
GI50 (DMS-273): 18.3 µM (inactive) | GI50 (KM-20L2): 26.7 µM (inactive) | GI50 (HOP-18): 7.53 µM (inactive) | GI50 (M19-MEL): 19 µM (inactive) | GI50 (LXFL 529): 4.45 µM (inactive) | GI50 (DLD-1): 9.48 µM (inactive) | GI50 (XF498): 15.3 µM (inactive) | GI50 (DMS-114): 20.7 µM (inactive)

C/C(=N\N=C(/S)N(C)C)c1cccc[n+]1[O-]
GI50 (DMS-273): 12.5 µM (inactive) | GI50 (KM-20L2): 5.61 µM (inactive) | GI50 (HOP-18): > 100 µM (inactive) | GI50 (M19-MEL): > 100 µM (inactive) | GI50 (LXFL 529): 0.466 µM (active) | GI50 (DLD-1): 2.18 µM (inactive) | GI50 (RXF 631): > 100 µM (inactive) | GI50 (DMS-114): 0.482 µM (active)

COc1ccc(Cc2cc(OC)c(OC)c(OC)c2)cc1
GI50 (DMS-273): 0.104 µM (active) | GI50 (KM-20L2): 0.181 µM (active) | GI50 (LXFL 529): 0.541 µM (active) | GI50 (DLD-1): 0.33 µM (active)

N#CC(NNC(=O)c1ccccc1O)c1ccc(O)cc1 (stereo not given)
GI50 (DMS-273): 3.32 µM (inactive) | GI50 (KM-20L2): 23.4 µM (inactive) | GI50 (HOP-18): 9.1 µM (inactive) | GI50 (M19-MEL): 5.38 µM (inactive) | GI50 (LXFL 529): 4.06 µM (inactive) | GI50 (DMS-114): 2.3 µM (inactive)

CN(CO)c1nc(N(C)CO)nc(N(C)CO)n1 [TRIMELAMOL]
GI50 (DMS-273): 7.6 µM (inactive) | GI50 (KM-20L2): 8.85 µM (inactive) | GI50 (HOP-18): 18.8 µM (inactive) | GI50 (M19-MEL): 8.04 µM (inactive) | GI50 (DLD-1): 10.2 µM (inactive) | GI50 (XF498): 5.75 µM (inactive)

O=c1[nH]c(=O)n(C2CC(O)C(CO)O2)cc1COCC(F)(F)F (stereo not given)
GI50 (DMS-273): > 100 µM (inactive) | GI50 (KM-20L2): > 100 µM (inactive) | GI50 (M19-MEL): > 100 µM (inactive) | GI50 (LXFL 529): > 100 µM (inactive) | GI50 (DLD-1): > 100 µM (inactive) | GI50 (XF498): > 100 µM (inactive) | GI50 (RXF 631): > 100 µM (inactive) | GI50 (DMS-114): > 100 µM (inactive)

C#CCOCn1cnc2c(N)ncnc21
GI50 (DMS-273): > 100 µM (inactive) | GI50 (KM-20L2): > 100 µM (inactive) | GI50 (HOP-18): > 100 µM (inactive) | GI50 (M19-MEL): > 100 µM (inactive) | GI50 (LXFL 529): > 100 µM (inactive) | GI50 (DLD-1): > 100 µM (inactive) | GI50 (XF498): > 100 µM (inactive) | GI50 (RXF 631): > 100 µM (inactive) | GI50 (DMS-114): > 100 µM (inactive)

O=C(CC(=O)n1nc(-c2ccccc2)c(/N=N/c2ccccc2Cl)c1-c1ccccc1)Nc1ccc(Cl)cc1
GI50 (DMS-273): > 64.3 µM (inactive) | GI50 (KM-20L2): > 57.3 µM (inactive) | GI50 (HOP-18): > 100 µM (inactive) | GI50 (M19-MEL): 21.7 µM (inactive) | GI50 (LXFL 529): > 100 µM (inactive) | GI50 (DLD-1): > 43.6 µM (inactive) | GI50 (XF498): > 100 µM (inactive) | GI50 (DMS-114): > 41.7 µM (inactive)

C/C(CN1C(=O)c2ccccc2C1=O)=N\NS(=O)(=O)c1ccc(Br)cc1
GI50 (DMS-273): > 100 µM (inactive) | GI50 (KM-20L2): > 100 µM (inactive) | GI50 (HOP-18): > 100 µM (inactive) | GI50 (M19-MEL): > 100 µM (inactive) | GI50 (LXFL 529): > 100 µM (inactive) | GI50 (DLD-1): > 100 µM (inactive) | GI50 (DMS-114): 10.9 µM (inactive)

O=C1C(=O)N(c2ccc(Cl)c(Cl)c2)C(=O)C(=O)C1c1nc2ccccc2o1
GI50 (DMS-273): 70.3 µM (inactive) | GI50 (KM-20L2): > 100 µM (inactive) | GI50 (M19-MEL): 58.7 µM (inactive) | GI50 (LXFL 529): 93.8 µM (inactive) | GI50 (DLD-1): 59.2 µM (inactive) | GI50 (XF498): 51.5 µM (inactive) | GI50 (RXF 631): 43.5 µM (inactive)

Cc1nc2ccccc2nc1NS(=O)(=O)c1ccc(N)cc1
GI50 (DMS-273): > 100 µM (inactive) | GI50 (KM-20L2): > 100 µM (inactive) | GI50 (HOP-18): > 100 µM (inactive) | GI50 (M19-MEL): > 100 µM (inactive) | GI50 (LXFL 529): > 100 µM (inactive) | GI50 (DLD-1): > 100 µM (inactive) | GI50 (XF498): > 100 µM (inactive) | GI50 (RXF 631): > 100 µM (inactive)

CO/S(=N/S(=O)(=O)c1ccccc1)c1ccccc1[N+](=O)[O-] (stereo not given)
GI50 (DMS-273): > 100 µM (inactive) | GI50 (KM-20L2): > 100 µM (inactive) | GI50 (HOP-18): > 100 µM (inactive) | GI50 (M19-MEL): > 100 µM (inactive) | GI50 (LXFL 529): > 100 µM (inactive) | GI50 (DLD-1): > 100 µM (inactive) | GI50 (XF498): > 100 µM (inactive) | GI50 (RXF 631): > 100 µM (inactive)

N#CCCC(C#N)(C#N)CCC#N
GI50 (DMS-273): > 100 µM (inactive) | GI50 (KM-20L2): > 100 µM (inactive) | GI50 (M19-MEL): > 100 µM (inactive) | GI50 (LXFL 529): > 100 µM (inactive) | GI50 (XF498): > 100 µM (inactive) | GI50 (DMS-114): > 100 µM (inactive)

Nc1nc(O)c([N+](=O)[O-])c(NCCOCP(=O)(O)O)n1
GI50 (DMS-273): > 100 µM (inactive) | GI50 (KM-20L2): > 100 µM (inactive) | GI50 (HOP-18): > 100 µM (inactive) | GI50 (M19-MEL): > 100 µM (inactive) | GI50 (LXFL 529): > 100 µM (inactive) | GI50 (DLD-1): > 100 µM (inactive) | GI50 (XF498): > 100 µM (inactive)

CCC1(c2c(F)c(F)c(N)c(F)c2F)CCC(=O)NC1=O (stereo not given)
GI50 (DMS-273): > 100 µM (inactive) | GI50 (HOP-18): > 100 µM (inactive) | GI50 (M19-MEL): > 100 µM (inactive) | GI50 (LXFL 529): > 100 µM (inactive) | GI50 (DLD-1): > 100 µM (inactive) | GI50 (XF498): > 100 µM (inactive) | GI50 (DMS-114): > 100 µM (inactive)

O=C1C[C@H]2CC3(CC[C@H]2CN1)OCCO3
GI50 (DMS-273): > 100 µM (inactive) | GI50 (M19-MEL): > 100 µM (inactive) | GI50 (LXFL 529): > 100 µM (inactive) | GI50 (DLD-1): > 100 µM (inactive) | GI50 (XF498): > 100 µM (inactive)
